The source of these data is patent US12162878B2 (HINOVA PHARMACEUTICALS INC., priority 2018, dated 2024).

One assay relates to CWR22RV1 cells. The assay can be described thus: Compound in combination with androgen receptor inhibitor HC-1119, proliferation of CWR22RV1 cells (CCK-8). The class given is cell-based, human. As to conditions: for IC50: Homo sapiens, CWR22Rv1, 144 h, 6 days, read-out: IC50 for inhibition on the activity of CWR22RV1. The procedure: • CWR22RV1 cell line (Cell Bank of Chinese Academy of Sciences, TCHu100) • FBS (Gibco, Cat. No. 10099-141) • 0.01M PBS (Biosharp, Cat. No. 162262) • RIPM1640 (Hyclone, Cat. No. 308090.01) • Penicillin-Streptomycin (Hyclone, Cat. No. SV30010) • Cell counting kit-8 (Signalway Antibody, Cat. No. CP002) • DMSO (Sigma, Cat. No. D5879) • Centrifuge Tube, 15 ml (Excell Bio, Cat. No. CS015-0001) • Cell Culture Dish, (Excell Bio, Cat. No. CS016-0128) • 96-well cell culture cluster (Corning, Cat. No. 3599) Experimental Method:
1) CWR22RV1 cells were subcultured in cell culture media, and the cells in good growth condition were seeded in a 96-well plate, 60 μL for each well, thus the number of cells per well was 2000, then the plate was cultured overnight in a 37° C., 5% CO2 cell incubator.
(§1) 2) The drug was prepared with dimethyl sulfoxide (DMSO) as a 10 mM stock solution. Prior to use, the solution was diluted 3 times with DMSO, and then diluted with a 3-fold gradient to obtain 9 concentration gradients. Then, each concentration of the compound was further diluted 200 times with the culture media (to ensure that DMSO concentration in the culture system was 0.1%), 2 repeat wells for each concentration. The diluted solution of each compound (20 μL) was added to the cell culture well (with a final concentration of 10 μM, 3.3 μM, 1.1 μM . . . ); while the solution of HC-1119 was diluted with culture media to the concentrations of 50 μM and 15 μM, respectively, and the diluted solution of HC-1119 was added to the corresponding cell culture well (with a final concentration of 10 μM, 3 μM), then shaken gently for mixing. In addition, three negative control wells containing only cells and three blank control wells containing only culture media (20 μL DMSO diluted 200 times with culture media being added to six wells) were included.
(§2) (1) After culturing for 6 days, 10 μL CCK-8 was added to each well and cultured for additional 2.5 h in a 37° C., 5% CO2 cell incubator.
(§3) (2) The absorbance (OD value) at 450 nm was measured with a multifunctional microplate reader.
(§4) (3) The data was analyzed by the Dose-response-inhibition equation in the software GraphPad Prism6, and the IC50 value was obtained.

The next assay has as its system Vcap cells. The assay can be described thus: Compound in combination with androgen receptor inhibitor HC-1119, proliferation of Vcap cells (CCK-8). It counts as cell-based, human. As to conditions: for IC50: Homo sapiens, VCaP, 144 h, 6 days, read-out: IC50 for inhibition on the activity of Vcap; for effect of combination with HC-1119 on inhibitory action on Vcap cells (in words): in combination with HC-1119, Vcap cells. How it is done:
• Vcap cell line (Cell Bank of Chinese Academy of Sciences, TCHu220) • FBS (Gibco, Cat. No. 10099-141) • 0.01M PBS (Biosharp, Cat. No. 162262) • DMEM HIGH Glucose (Hyclone, Cat. No. SH30243.01) • Penicillin-Streptomycin (Hyclone, Cat. No. SV30010) • Cell counting kit-8 (Signalway Antibody, Cat. No. CP002) • DMSO (Sigma, Cat. No. D5879) • Centrifuge Tube, 15 ml (Excell Bio, Cat. No. CS015-0001) • Cell Culture Dish (Excell Bio, Cat. No. CS016-0128) • 96-well cell culture cluster (Corning, Cat. No. 3599) 2. Experimental Method
1) Vcap cells were subcultured in cell culture media, and the cells in good growth condition were seeded in a 96-well plate, 60 μL for each well, thus the number of cells per well was 10000, then the plate was cultured overnight in a 37° C., 5% CO2 cell incubator.
as §1, with “10 μM, 1 μM), then” for “10 μM, 3 μM), then”
as §2, §3, §4

Setting [1] is: in combination with 1 μM HC-1119, Vcap cells.
Where [2] appears, read: in combination with 10 μM HC-1119, Vcap cells.

Read-outs that look alike come from different tables or passages of the source.

For `[2H]C([2H])([2H])n1cc(-c2cc(S(C)(=O)=O)ccc2N2CCC3(CC2)CC3(F)F)c2cc[nH]c2c1=O` [Compound 184, 4-(2-(1,1-difluoro-6-aza-spiro[2.5]octan-6-yl)-5-(methylsulfonyl)phenyl)-6-trideuteromethyl-1H-pyrrolo[2,3-c]pyridin-7(6H)-one], the IC50 stood at 8.1 nM in the assay with CWR22RV1 cells (compound alone, CWR22RV1 cells); 2 nM in the assay on CWR22RV1 cells (in combination with 3 μM HC-1119, CWR22RV1 cells); 1.5 nM in the assay on CWR22RV1 cells (in combination with 10 μM HC-1119, CWR22RV1 cells); 15 nM with Vcap cells (compound alone, Vcap cells); 0.33 nM with Vcap cells (setting [1]); 0.13 nM in the assay with Vcap cells (setting [2]). In addition, the “effect of combination with HC-1119 on inhibitory action on CWR22RV1 cells (in words)” value in the assay with CWR22RV1 cells (in combination with HC-1119, CWR22RV1 cells) is “improve the inhibitory action”. Also, in the assay on Vcap cells, the “effect of combination with HC-1119 on inhibitory action on Vcap cells (in words)” value is listed as “improve the inhibitory action”.

Take `[2H]C([2H])([2H])n1cc(-c2cc(S(C)(=O)=O)c(F)cc2N2CCC3(CC2)CC3(F)F)c2cc[nH]c2c1=O` [Compound 219, 4-(2-(1,1-difluoro-6-aza-spiro[2.5]octan-6-yl)-4-fluoro-5-(methylsulfonyl)phenyl)-6-trideuteromethyl-1H-pyrrolo[2,3-c]pyridin-7(6H)-one]: the IC50 with Vcap cells (compound alone, Vcap cells) is 17.6 nM; with Vcap cells (setting [1]), 0.55 nM; in the assay with Vcap cells (setting [2]), 0.18 nM. For the same compound, the “effect of combination with HC-1119 on inhibitory action on Vcap cells (in words)” value with Vcap cells was “improve the inhibitory action”.
